# Measured values from patent US20130023051A1, “TECHNIQUES FOR TRANSFECTING PROTOPLASTS” (Keygene N.V., priority 2009, published 2013).
# Tested on: mutated EGFP (mEGFP) in BY-2 protoplasts
# Test: meGFP restoration in BY-2 protoplasts by oligonucleotide-mediated targeted gene repair (Example 3)
# Type: cell-based, tobacco
# Source text: A tobacco Bright Yellow 2 cell suspension containing a non-functional EGFP gene was produced by introducing a point mutation in the chromophore region of the protein resulting in the formation of a premature stop codon. This line is used as reporter system to test the influence of various parameters on the repair of the EGFP gene by oligonucleotide-mediated targeted gene repair.
# Five mL of a 7 d-old tobacco Bright Yellow 2 (BY-2) cell suspension culture weekly maintained in BY-2 culture medium (Nagata et al. 1999 Method Cell Sci) are transferred to a 50 mL Erlenmeyer flask containing 45 mL of BY-2 culture medium supplemented with 2 mM hydroxyurea. […] Live protoplasts are harvested and their density evaluated using a haemocytometer. […]
# Tobacco protoplasts transfection is performed as for tomato protoplasts. […] To culture medium contained (per liter, pH 5.7) 950 mg KNO3, 825 mg NH4NO3, 220 mg CaCl2.2H2O, 185 mg MgSO4.7H2O, 85 mg KH2PO4, 27.85 mg FeSO4.7H2O, 37.25 mg Na2EDTA.2H2O, the micro-nutrients according to Heller's medium (Heller, R. 1953 Ann Sci Nat Bot Biol Veg), vitamins according to Morel and Wetmore's medium (Morel, G. and R. H. Wetmore 1951 Amer. J. Bot.), 2% (w/v) sucrose, 3 mg naphthalene acetic acid, 1 mg 6-benzylaminopurine and a quantity of mannitol to bring the osmolality to 540 mOsm·kg^−1 and transferred to a 35 mm Petri dish. […]
substance,measurement,setting,value
"repairing oligonucleotide: SEQ ID NO 8, T*G*A*A*CAGCTCCTCGCCCTTGC*T*C*A*C, phosphorothioate ends, one mismatch with the targeted sequence (DNA TGAACAGCTCCTCGCCCTTGCTCAC; DNA, linkages s4 o16 s4 (s phosphorothioate, o phosphodiester), methylation of C not given here)",GFP positive protoplasts after 24 hours (/10^6),"label = Day 1 / Day 2 treatment, oligonucleotide transfected at Day 2, dichlobenil 2 mg·L^−1 overnight, 2 mM hydroxyurea",0 /10^6
same,GFP positive protoplasts after 24 hours (/10^6),"oligonucleotide transfected at Day 1, nothing at Day 2, 2 mM hydroxyurea",0 /10^6
